Measurements from US20240262795A1, “PYRAZINE COMPOUNDS AS INHIBITORS OF FLT3” (Biomea Fusion, Inc., priority 2021, published 2024).

Experiments:
K-562 = assay: Proliferation inhibition, CellTiter-Glo, K-562; format: cell-based, human; details: Homo sapiens, K562, 96 h; K-562 cells, IC50 (4 days), CellTiter-Glo; read-out: K-562 IC50
How it was run: (§1)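 About 10,000 cells per well in RPMI-1640 with 10% FBS. Compounds added 2 h after seeding at eight concentrations in duplicate (0.2% DMSO as 100% proliferation), then incubated ~96 h at 37° C, 5% CO2. ATP measured by CellTiter-Glo luminescence; IC50 from four-parameter logistic fit.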

WT FLT3 = target: T1, WT FLT3 (Homo sapiens, UniProt P36888); assay: WT FLT3 Lance Ultra TR-FRET kinase assay; format: biochemical
T1 construct: purchased Invitrogen PR4666C
T1 sequence (P36888 564-993 limits assumed): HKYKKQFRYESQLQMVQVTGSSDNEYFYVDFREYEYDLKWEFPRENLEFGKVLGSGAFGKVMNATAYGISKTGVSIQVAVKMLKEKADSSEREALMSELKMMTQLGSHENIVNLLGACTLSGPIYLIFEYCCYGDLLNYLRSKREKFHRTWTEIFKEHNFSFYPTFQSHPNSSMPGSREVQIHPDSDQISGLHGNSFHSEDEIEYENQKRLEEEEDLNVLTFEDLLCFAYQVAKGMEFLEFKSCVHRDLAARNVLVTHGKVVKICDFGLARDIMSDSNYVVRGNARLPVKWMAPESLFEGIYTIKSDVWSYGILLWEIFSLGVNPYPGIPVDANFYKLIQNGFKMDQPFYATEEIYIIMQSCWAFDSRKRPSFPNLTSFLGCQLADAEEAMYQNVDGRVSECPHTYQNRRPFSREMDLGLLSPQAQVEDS
From the text: (§2) High throughput 384-well Lance Ultra TR-FRET based kinase assays were established for the WT FLT3 and FLT3-ITD enzymes and employed a ULight-labeled peptide […] and FLT3 proteins labelled with Eu-conjugated antibody […] (WuXi Aptec). The principle of TR-FRET is based on transfer of energy between a donor and acceptor fluorophore that results when the fluorophores are within close proximity (˜100 Å) of each other. Recombinant WT FLT3 (#PR4666C, M.W. 48.6 kDa) was purchased from Invitrogen and FLT3-ITD (FLT3-ITD-W51, #F-12-12CG-10, M.W. 76 kDa) was purchased from Signalchem. Optimal assay conditions for the WT FLT3 enzyme assay were as follows: 0.5 nM FLT3 protein, 50 nM ULight-JAK-1 (Tyr1023) substrate peptide (PerkinElmer #TRF0121), 100 μM ATP, 60 min reaction time. Optimal assay conditions for the FLT3-ITD enzyme assay were as follows: 0.0625 nM FLT3-ITD protein, 50 nM ULight-JAK-1 (Tyr1023) substrate peptide, 50 μM ATP, 90 min reaction time. Briefly, 11 dose 3× serial dilutions were prepared for the test compounds and the reference compound and 100 nanoliters transferred to appropriate wells of 384-well assay plates. Five microliters of 2× enzyme/peptide were added into assay wells, assay plates centrifuged at 1000 rpm for about 30 seconds, sealed with sealing film and incubated for 30 min at 23° C. Assay buffer comprised 50 mM HEPES (pH 7.5), 1 mM EDTA, 0.01% Brij-35, 10 mM MgCl2 and 2 mM DTT. Next 5 μl of a 2× ATP mixture were added into the assay wells and the plates centrifuged at 1000 rpm about 30 seconds, sealed with sealing film and incubated for 23° C. for appropriate duration. Following assay incubation (30 min for WT FLT3 and 60 min for FLT3-ITD) 10 μl 2× Detection Mixture (Eu-W1024 Anti-phosphotyrosine (PT66) 2 nM and EDTA 10 mM) was added to assay wells, assay plates centrifuge at 1000 rpm about 1 minutes, sealed with sealing film and incubated at 23° C. for 60 minutes. Assay plates were read on a Perkin Elmer Envision reader at two wavelengths (665/615) and the ratio of […] calculated.
(§3) Data was expressed as % of inhibition relative to the vehicle control and calculated as follows:
(§4) Results were analyzed by XLFIT5 as % inhibition vs. log [compound concentration] and IC50 values were calculated by non-linear regression using four parameter-logistic equation. Fit=(A+((B−A)/(1+((C/x)^D)))). Res=(y−fit).

MV-4-11 = assay: Proliferation inhibition, CellTiter-Glo, MV-4-11; format: cell-based, human; details: Homo sapiens, MV4-11, 96 h; MV-4:11 cells, IC50 (4 days), CellTiter-Glo; read-out: MV-4:11 IC50
How it was run: as §1

FLT3-ITD = target: T2, FLT3-ITD (Homo sapiens, UniProt P36888, DUP595-601); assay: FLT3-ITD Lance Ultra TR-FRET kinase assay; format: biochemical
T2 construct: purchased Signalchem F-12-12CG-10
T2 sequence (P36888 with tags, fused parts or gaps DUP595-601 limits assumed): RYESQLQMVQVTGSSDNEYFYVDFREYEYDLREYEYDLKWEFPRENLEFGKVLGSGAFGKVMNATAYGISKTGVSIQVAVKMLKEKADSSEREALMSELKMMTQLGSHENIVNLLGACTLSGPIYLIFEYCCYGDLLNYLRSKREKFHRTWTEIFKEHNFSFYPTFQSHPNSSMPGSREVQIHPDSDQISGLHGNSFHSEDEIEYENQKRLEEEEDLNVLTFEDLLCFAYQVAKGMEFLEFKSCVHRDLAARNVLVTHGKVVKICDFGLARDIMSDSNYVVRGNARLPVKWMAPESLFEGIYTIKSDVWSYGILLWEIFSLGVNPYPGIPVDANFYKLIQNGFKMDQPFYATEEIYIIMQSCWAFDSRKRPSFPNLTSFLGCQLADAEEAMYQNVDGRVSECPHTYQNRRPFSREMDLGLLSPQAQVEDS
From the text: as §2, §3, §4

MOLM-13 = assay: Proliferation inhibition, CellTiter-Glo, MOLM-13; format: cell-based, human; details: Homo sapiens, 96 h; MOLM-13 cells, IC50 (4 days), CellTiter-Glo; read-out: MOLM-13 IC50
How it was run: as §1

SMILES | IC50 (K-562) [nM] | IC50 (WT FLT3) [nM] | IC50 (MV-4-11) [nM] | IC50 (FLT3-ITD) [nM] | IC50 (MOLM-13) [nM]
CCc1nc(C(N)=O)c(Nc2cccc(CCNC(=O)[C@H](C)N(C)C(=O)/C=C/CN(C)C)c2)nc1N(C)C [Compound 137, (S,E)-5-(dimethylamino)-3-((3-(2-(2-(4-(dimethylamino)-N-methylbut-2-enamido)propanamido)ethyl)phenyl)amino)-6-ethylpyrazine-2-carboxamide] | > 500 | 0.501 to 1 | < 1 | 0.201 to 0.5 | < 1
CCc1nc(C(N)=O)c(Nc2cccc(CCNC(=O)[C@H](C)N(C)C(=O)/C=C/CN(C)C)c2)nc1C1CC1 [Compound 138, (S,E)-5-cyclopropyl-3-((3-(2-(2-(4-(dimethylamino)-N-methylbut-2-enamido)propanamido)ethyl)phenyl)amino)-6-ethylpyrazine-2-carboxamide] | > 500 | 0.201 to 0.5 | < 1 | 0.201 to 0.5 | 1 to 10
CCc1nc(C(N)=O)c(Nc2cc(CCNC(=O)[C@H](C)N(C)C(=O)/C=C/CN(C)C)cc(OC)c2)nc1N(C)C [Compound 143] | > 500 | 0.101 to 0.2 | < 1 | 0.101 to 0.2 | < 1
CCc1nc(C(N)=O)c(Nc2cc(CCNC(=O)[C@H](C)N(C)C(=O)/C=C/CN(C)C)cc(OC)c2)nc1C1CC1 [Compound 144, (S,E)-5-cyclopropyl-3-((3-(2-(2-(4-(dimethylamino)-N-methylbut-2-enamido)propanamido)ethyl)-5-methoxyphenyl)amino)-6-ethylpyrazine-2-carboxamide] | > 500 | 0.201 to 0.5 | < 1 | 0.201 to 0.5 | < 1
CCc1nc(C(N)=O)c(Nc2cccc(CCNC(=O)[C@H](C)N(C)C(=O)/C=C/CN3CCC3)c2)nc1N(C)C [Compound 156, (S,E)-3-((3-(2-(2-(4-(azetidin-1-yl)-N-methylbut-2-enamido)propanamido)ethyl)phenyl)amino)-5-(dimethylamino)-6-ethylpyrazine-2-carboxamide] | > 500 | 0.201 to 0.5 | < 1 | 0.201 to 0.5 | < 1
CCc1nc(C(N)=O)c(Nc2cc(F)cc(CCNC(=O)[C@H](C)N(C)C(=O)/C=C/CN(C)C)c2)nc1N(C)C [Compound 158, (S,E)-5-(dimethylamino)-3-((3-(2-(2-(4-(dimethylamino)-N-methylbut-2-enamido)propanamido)ethyl)-5-fluorophenyl)amino)-6-ethylpyrazine-2-carboxamide] | > 500 | 0.101 to 0.2 | < 1 | 0.101 to 0.2 | < 1
CCc1nc(C(N)=O)c(Nc2cc(F)cc(CCNC(=O)[C@H](C)N(C)C(=O)/C=C/CN(C)C)c2)nc1C1CC1 [Compound 159, (S,E)-5-cyclopropyl-3-((3-(2-(2-(4-(dimethylamino)-N-methylbut-2-enamido)propanamido)ethyl)-5-fluorophenyl)amino)-6-ethylpyrazine-2-carboxamide] | > 500 | 0.501 to 1 | < 1 | 0.201 to 0.5 | 1 to 10
CCc1nc(C(N)=O)c(Nc2cncc(CCNC(=O)[C@H](C)N(C)C(=O)/C=C/CN(C)C)c2)nc1C1CC1 [Compound 306, (S, E)-5-cyclopropyl-3-((5-(2-(2-(4-(dimethylamino)-N-methylbut-2-enamido)propanamido)ethyl)pyridin-3-yl)amino)-6-ethylpyrazine-2-carboxamide] | – | 0.501 to 1 | 1 to 10 | > 1 | 1 to 10
CCc1nc(C(N)=O)c(Nc2cccc([C@H](C)CNC(=O)CN(C)C(=O)/C=C/CN(C)C)c2)nc1C [Compound 324, (S,E)-3-((3-(1-(2-(4-(dimethylamino)-N-methylbut-2-enamido)acetamido)propan-2-yl)phenyl)amino)-6-ethyl-5-methylpyrazine-2-carboxamide] | > 500 | – | 10 to 100 | – | 100 to 500
CCc1nc(C(N)=O)c(Nc2cccc([C@H](C)CNC(=O)[C@H](C)N(C)C(=O)/C=C/CN(C)C)c2)nc1C [Compound 325, 3-[3-[(1S)-2-[[(2S)-2-[[(E)-4-(dimethylamino)but-2-enoyl]-methyl-amino]propanoyl]amino]-1-methyl-ethyl]anilino]-6-ethyl-5-methyl-pyrazine-2-carboxamide] | > 500 | – | 100 to 500 | – | 100 to 500
CCc1nc(C(N)=O)c(Nc2cccc([C@@H](C)CNC(=O)[C@H](C)N(C)C(=O)/C=C/CN(C)C)c2)nc1C [Compound 326, 3-((3-((R)-1-((S)-2-((E)-4-(dimethylamino)-N-methylbut-2-enamido)propanamido)propan-2-yl)phenyl)amino)-6-ethyl-5-methylpyrazine-2-carboxamide] | > 500 | – | > 500 | – | > 500
C=CC(=O)N(C)CC(=O)NC[C@H](C)c1cccc(Nc2nc(CC(C)C)c(CC)nc2C(N)=O)c1 [Compound 512, (R)-6-ethyl-5-isobutyl-3-((3-(1-(2-(N-methylacrylamido)acetamido)propan-2-yl)phenyl)amino) pyrazine-2-carboxamide] | > 500 | – | 10 to 100 | – | > 500
CCc1nc(C(N)=O)c(Nc2ccnc(CCNC(=O)CN(C)C(=O)/C=C/CN3CCC3)c2)nc1CC(C)C [Compound 604, (E)-3-((2-(2-(2-(4-(azetidin-1-yl)-N-methylbut-2-enamido)acetamido)ethyl)pyridin-4-yl)amino)-6-ethyl-5-isobutylpyrazine-2-carboxamide] | > 500 | – | < 1 | – | 1 to 10
CCc1nc(C(N)=O)c(Nc2ccc(F)c(CCNC(=O)CN(C)C(=O)/C=C/CN3CCC3)c2)nc1C1CC1 [Compound 607, (E)-3-((3-(2-(2-(4-(azetidin-1-yl)-N-methylbut-2-enamido)acetamido)ethyl)-4-fluorophenyl)amino)-5-cyclopropyl-6-ethylpyrazine-2-carboxamide] | > 500 | – | 1 to 10 | – | 1 to 10
